Laboratory results published in patent US7244431B2, “Allergy vaccines and their preparation” (priority 2000, dated 2007).

How the values were obtained:
[1] = NMR analysis for residual secondary or tertiary structure; format: physicochemical; details: water solution
Protocol: NMR was then used to check for residual secondary or tertiary structure. Compared to other spectroscopical approaches, this technique has the advantage that it provides positional information along the sequence.
Peptides were examined for tertiary and/or secondary structure by one and two-dimensional nuclear magnetic resonance (NMR) on a UNITY VARIAN 600 MHz spectrometer equipped with z-shielded gradient coils using 0.8-1.0 mM samples in 90% H2O/10% D2O, 20 mM potassium phosphate buffer pH 7.0, at 20° C. […] Mixing times used were 70 ms and 150 or 200 ms for TOCSY and NOESY experiments, respectively.
The absence of ring current shifted peaks in the region of the spectra below 0.5 ppm typical of well folded proteins is also a feature common to the spectra of the Bet v 1 peptides (data not shown). […] This peptide (P5), that in the Bet v 1 structure spans the whole C-terminal helix probably tends to form helical structures that aggregate in water solution.

[2] = system: IgE antibodies in sera from birch pollen allergic patients; test: ELISA detection of peptide- and rBet v 1-specific IgE antibodies; format: binding, human
Method in brief: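 IgE binding detected by 1:1000 alkaline-phosphatase mouse monoclonal anti-human IgE after overnight 4 °C incubation with 1:3-diluted sera. Sera came from 60 birch pollen allergic patients (25 male, 35 female, age 19–60) and a non-atopic control.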

[3] = system: birch pollen allergic patients; test: Skin prick testing of allergic patients; format: in vivo, human; details: 100 μg/ml
Protocol: SPTs were performed on the individuals forearms as described ([…]. et al. (1997) J. Clin Invest. 99, 1673-168; Dreborg S: (1989) J. Am. Acad. DerMatol. 21, 820-821). […] In addition standardized skin prick solutions (birch pollen extract and histamine) (Allergopharma, Reinbek, Germany) were tested. Reactions were recorded 20 minutes after SPT by photography and by transferring the ballpoint pen-surrounded wheal area with a scotch tape to paper.

## CKAEQVKASKEMGETLLRAVESYLLAHSDAYN [Peptide P5, Bet v 1-derived synthetic peptide, position aa 130-160, one cysteine added]
[1]
  aggregation (NMR): unusually broad resonances suggesting aggregation
[2]; serum of NHS, non-allergic control individual
  IgE (OD): — (Dashes indicate reactivities below the cut-off level (OD=0.050))
[2]; serum of patient 1
  IgE (OD): — (Dashes indicate reactivities below the cut-off level (OD=0.050))
[2]; serum of patient 2
  IgE (OD): — (Dashes indicate reactivities below the cut-off level (OD=0.050))
[2]; serum of patient 3
  IgE (OD): — (Dashes indicate reactivities below the cut-off level (OD=0.050))
[2]; serum of patient 4
  IgE (OD): — (Dashes indicate reactivities below the cut-off level (OD=0.050))
[2]; serum of patient 5
  IgE (OD): — (Dashes indicate reactivities below the cut-off level (OD=0.050))
[2]; serum of patient 6
  IgE (OD): — (Dashes indicate reactivities below the cut-off level (OD=0.050))
[2]; serum of patient 7
  IgE (OD): — (Dashes indicate reactivities below the cut-off level (OD=0.050))
[2]; serum of patient 8
  IgE (OD): — (Dashes indicate reactivities below the cut-off level (OD=0.050))
[2]; serum of patient 9
  IgE (OD): — (Dashes indicate reactivities below the cut-off level (OD=0.050))
[2]; serum of patient 10
  IgE (OD): — (Dashes indicate reactivities below the cut-off level (OD=0.050))
[2]; serum of patient 11
  IgE (OD): — (Dashes indicate reactivities below the cut-off level (OD=0.050))
[2]; serum of patient 12
  IgE (OD): — (Dashes indicate reactivities below the cut-off level (OD=0.050))
[2]; serum of patient 13
  IgE (OD): — (Dashes indicate reactivities below the cut-off level (OD=0.050))
[2]; serum of patient 14
  IgE (OD): — (Dashes indicate reactivities below the cut-off level (OD=0.050))
[2]; serum of patient 15
  IgE (OD): — (Dashes indicate reactivities below the cut-off level (OD=0.050))
[2]; serum of patient 16
  IgE (OD): — (Dashes indicate reactivities below the cut-off level (OD=0.050))
[2]; serum of patient 17
  IgE (OD): — (Dashes indicate reactivities below the cut-off level (OD=0.050))
[2]; serum of patient 18
  IgE (OD): — (Dashes indicate reactivities below the cut-off level (OD=0.050))
[2]; serum of patient 19
  IgE (OD): — (Dashes indicate reactivities below the cut-off level (OD=0.050))
[2]; serum of patient 20
  IgE (OD): — (Dashes indicate reactivities below the cut-off level (OD=0.050))
[2]; serum of patient 21
  IgE (OD): — (Dashes indicate reactivities below the cut-off level (OD=0.050))
[2]; serum of patient 22
  IgE (OD): — (Dashes indicate reactivities below the cut-off level (OD=0.050))
[2]; serum of patient 23
  IgE (OD): — (Dashes indicate reactivities below the cut-off level (OD=0.050))
[2]; serum of patient 24
  IgE (OD): — (Dashes indicate reactivities below the cut-off level (OD=0.050))
[2]; serum of patient 25
  IgE (OD): — (Dashes indicate reactivities below the cut-off level (OD=0.050))
[2]; serum of patient 26
  IgE (OD): — (Dashes indicate reactivities below the cut-off level (OD=0.050))
[2]; serum of patient 27
  IgE (OD): — (Dashes indicate reactivities below the cut-off level (OD=0.050))
[2]; serum of patient 28
  IgE (OD): — (Dashes indicate reactivities below the cut-off level (OD=0.050))
[2]; serum of patient 29
  IgE (OD): — (Dashes indicate reactivities below the cut-off level (OD=0.050))
[2]; serum of patient 30
  IgE (OD): — (Dashes indicate reactivities below the cut-off level (OD=0.050))
[2]; serum of patient 31
  IgE (OD): — (Dashes indicate reactivities below the cut-off level (OD=0.050))
[2]; serum of patient 32
  IgE (OD): — (Dashes indicate reactivities below the cut-off level (OD=0.050))
[2]; serum of patient 33
  IgE (OD): — (Dashes indicate reactivities below the cut-off level (OD=0.050))
[2]; serum of patient 34
  IgE (OD): — (Dashes indicate reactivities below the cut-off level (OD=0.050))
[2]; serum of patient 35
  IgE (OD): — (Dashes indicate reactivities below the cut-off level (OD=0.050))
[2]; serum of patient 36
  IgE (OD): — (Dashes indicate reactivities below the cut-off level (OD=0.050))
[2]; serum of patient 37
  IgE (OD): — (Dashes indicate reactivities below the cut-off level (OD=0.050))
[2]; serum of patient 38
  IgE (OD): — (Dashes indicate reactivities below the cut-off level (OD=0.050))
[2]; serum of patient 39
  IgE (OD): — (Dashes indicate reactivities below the cut-off level (OD=0.050))
[2]; serum of patient 40
  IgE (OD): — (Dashes indicate reactivities below the cut-off level (OD=0.050))
[2]; serum of patient 41
  IgE (OD): — (Dashes indicate reactivities below the cut-off level (OD=0.050))
[2]; serum of patient 42
  IgE (OD): — (Dashes indicate reactivities below the cut-off level (OD=0.050))
[2]; serum of patient 43
  IgE (OD): — (Dashes indicate reactivities below the cut-off level (OD=0.050))
[2]; serum of patient 44
  IgE (OD): — (Dashes indicate reactivities below the cut-off level (OD=0.050))
[2]; serum of patient 45
  IgE (OD): — (Dashes indicate reactivities below the cut-off level (OD=0.050))
[2]; serum of patient 46
  IgE (OD): — (Dashes indicate reactivities below the cut-off level (OD=0.050))
[2]; serum of patient 47
  IgE (OD): — (Dashes indicate reactivities below the cut-off level (OD=0.050))
[2]; serum of patient 48
  IgE (OD): — (Dashes indicate reactivities below the cut-off level (OD=0.050))
[2]; serum of patient 49
  IgE (OD): — (Dashes indicate reactivities below the cut-off level (OD=0.050))
[2]; serum of patient 50
  IgE (OD): — (Dashes indicate reactivities below the cut-off level (OD=0.050))
[2]; serum of patient 51
  IgE (OD): — (Dashes indicate reactivities below the cut-off level (OD=0.050))
[2]; serum of patient 52
  IgE (OD): — (Dashes indicate reactivities below the cut-off level (OD=0.050))
[2]; serum of patient 53
  IgE (OD): — (Dashes indicate reactivities below the cut-off level (OD=0.050))
[2]; serum of patient 54
  IgE (OD): — (Dashes indicate reactivities below the cut-off level (OD=0.050))
[2]; serum of patient 55
  IgE (OD): — (Dashes indicate reactivities below the cut-off level (OD=0.050))
[2]; serum of patient 56
  IgE (OD): — (Dashes indicate reactivities below the cut-off level (OD=0.050))
[2]; serum of patient 57
  IgE (OD): — (Dashes indicate reactivities below the cut-off level (OD=0.050))
[2]; serum of patient 58
  IgE (OD): — (Dashes indicate reactivities below the cut-off level (OD=0.050))
[2]; serum of patient 59
  IgE (OD): — (Dashes indicate reactivities below the cut-off level (OD=0.050))
[2]; serum of patient 60
  IgE (OD): — (Dashes indicate reactivities below the cut-off level (OD=0.050))
[3]; individual 1
  mean wheal diameter: 0 mm
[3]; individual 2
  mean wheal diameter: 0 mm
[3]; individual 3
  mean wheal diameter: 0 mm
[3]; individual 4
  mean wheal diameter: 0 mm
[3]; individual 5
  mean wheal diameter: 0 mm
[3]; individual 6 (allergic, without birch pollen allergy)
  mean wheal diameter: 0 mm
